# Source: ChEMBL document CHEMBL3885861, “Open TG-GATES”
# Species on record: Rattus norvegicus
# Assay: Open TG-GATES - Regimen: Daily Repeat
# Format: toxicity, organism-based, Sprague-Dawley
# Design: regimen Daily Repeat, gender Male, age 6 weeks
# Settings: in vivo, iv, 1000 mg/kg, route intravenous injection, dose level Middle; for APTT / Bas / Eos / Fbg / Hb / Ht / Lym / MCH / MCHC / MCV / Mono / Neu / PT / Plat / RBC / Ret / WBC: tissue Blood; for KIDNEY_L / KIDNEY_R / KIDNEY_TOTAL: tissue Kidney; for LIVER: tissue Liver; for ALP / ALT / AST / BUN / CRE / Ca / Cl / DBIL / GLC / IP / K / LDH / Na / PL / RALB / TBIL / TC / TG / TP / gamma-GTP: tissue Plasma
smiles,measurement,setting,value
CC(=O)OCC1=C(C(=O)O)N2C(=O)[C@@H](NC(=O)Cc3cccs3)[C@H]2SC1 [CEPHALOTHIN],TERMINAL_BW,"72 h, time 3 day",236.8 g
same,APTT,"72 h, time 3 day",22.6 s
same,Bas,"72 h, time 3 day",0%
same,Eos,"72 h, time 3 day",1%
same,Fbg,"72 h, time 3 day",308.4 mg/dL
same,Hb,"72 h, time 3 day",13.4 g/dL
same,Ht,"72 h, time 3 day",38.7%
same,Lym,"72 h, time 3 day",87.2%
same,MCH,"72 h, time 3 day",21.3 pg
same,MCHC,"72 h, time 3 day",34.7%
same,MCV,"72 h, time 3 day",61.6 fL
same,Mono,"72 h, time 3 day",2.6%
same,Neu,"72 h, time 3 day",8.2%
same,PT,"72 h, time 3 day",16 s
same,Plat,"72 h, time 3 day",120.2 x10_4/uL
same,RBC,"72 h, time 3 day",630.2 x10_4/ul
same,Ret,"72 h, time 3 day",5%
same,WBC,"72 h, time 3 day",80.1 x10_2/uL
same,KIDNEY_L,"72 h, time 3 day",1 g
same,KIDNEY_R,"72 h, time 3 day",1 g
same,KIDNEY_TOTAL,"72 h, time 3 day",2 g
same,LIVER,"72 h, time 3 day",10.2 g
same,ALP,"72 h, time 3 day",1638.6 IU/L
same,ALT,"72 h, time 3 day",44.6 IU/L
same,AST,"72 h, time 3 day",71.2 IU/L
same,BUN,"72 h, time 3 day",18 mg/dL
same,CRE,"72 h, time 3 day",0.2 mg/dL
same,Ca,"72 h, time 3 day",10.6 mg/dL
same,Cl,"72 h, time 3 day",105.2 meq/L
same,DBIL,"72 h, time 3 day",0 mg/dL
same,GLC,"72 h, time 3 day",160 mg/dL
same,IP,"72 h, time 3 day",7.1 mg/dL
same,K,"72 h, time 3 day",4.5 meq/L
same,LDH,"72 h, time 3 day",147.8 IU/L
same,Na,"72 h, time 3 day",141.2 meq/L
same,PL,"72 h, time 3 day",141.6 mg/dL
same,RALB,"72 h, time 3 day",3 g/dL
same,TBIL,"72 h, time 3 day",0.008 mg/dL
same,TC,"72 h, time 3 day",85.2 mg/dL
same,TG,"72 h, time 3 day",65.8 mg/dL
same,TP,"72 h, time 3 day",5.5 g/dL
same,gamma-GTP,"72 h, time 3 day",1.4 IU/L
same,TERMINAL_BW,"[…], time 7 day",261.5 g
same,TERMINAL_BW,"[…], time 14 day",302.8 g
same,TERMINAL_BW,"[…], time 28 day",376.7 g
same,APTT,"[…], time 7 day",21.6 s
same,Bas,"[…], time 7 day",0%
same,Eos,"[…], time 7 day",1.2%
same,Fbg,"[…], time 7 day",323 mg/dL
same,Hb,"[…], time 7 day",13.2 g/dL
same,Ht,"[…], time 7 day",38%
same,Lym,"[…], time 7 day",87.2%
same,MCH,"[…], time 7 day",20.7 pg
same,MCHC,"[…], time 7 day",34.8%
same,MCV,"[…], time 7 day",59.3 fL
same,Mono,"[…], time 7 day",2.2%
same,Neu,"[…], time 7 day",9%
same,PT,"[…], time 7 day",17 s
same,Plat,"[…], time 7 day",135.9 x10_4/uL
same,RBC,"[…], time 7 day",640.6 x10_4/ul
same,Ret,"[…], time 7 day",5.5%
same,WBC,"[…], time 7 day",90.6 x10_2/uL
same,APTT,"[…], time 14 day",23.4 s
same,Bas,"[…], time 14 day",0%
same,Eos,"[…], time 14 day",0.8%
same,Fbg,"[…], time 14 day",260.8 mg/dL
same,Hb,"[…], time 14 day",13.9 g/dL
same,Ht,"[…], time 14 day",39%
same,Lym,"[…], time 14 day",89.2%
same,MCH,"[…], time 14 day",20.2 pg
same,MCHC,"[…], time 14 day",35.6%
same,MCV,"[…], time 14 day",56.6 fL
same,Mono,"[…], time 14 day",2.2%
same,Neu,"[…], time 14 day",6.8%
same,PT,"[…], time 14 day",16.2 s
same,Plat,"[…], time 14 day",123.9 x10_4/uL
same,RBC,"[…], time 14 day",689.8 x10_4/ul
same,Ret,"[…], time 14 day",5%
same,WBC,"[…], time 14 day",109.6 x10_2/uL
same,APTT,"[…], time 28 day",24.8 s
same,Bas,"[…], time 28 day",0%
same,Eos,"[…], time 28 day",1.4%
same,Fbg,"[…], time 28 day",294.4 mg/dL
same,Hb,"[…], time 28 day",14.9 g/dL
same,Ht,"[…], time 28 day",40.5%
same,Lym,"[…], time 28 day",88.2%
same,MCH,"[…], time 28 day",19.6 pg
same,MCHC,"[…], time 28 day",36.8%
same,MCV,"[…], time 28 day",53.1 fL
same,Mono,"[…], time 28 day",1.8%
same,Neu,"[…], time 28 day",7.6%
same,PT,"[…], time 28 day",16.2 s
same,Plat,"[…], time 28 day",113.8 x10_4/uL
same,RBC,"[…], time 28 day",762.8 x10_4/ul
same,Ret,"[…], time 28 day",2.8%
same,WBC,"[…], time 28 day",98 x10_2/uL
same,KIDNEY_L,"[…], time 7 day",1.1 g
same,KIDNEY_R,"[…], time 7 day",1.1 g
same,KIDNEY_TOTAL,"[…], time 7 day",2.3 g
same,KIDNEY_L,"[…], time 14 day",1.2 g
same,KIDNEY_R,"[…], time 14 day",1.3 g
same,KIDNEY_TOTAL,"[…], time 14 day",2.5 g
same,KIDNEY_L,"[…], time 28 day",1.4 g
same,KIDNEY_R,"[…], time 28 day",1.4 g
same,KIDNEY_TOTAL,"[…], time 28 day",2.8 g
same,LIVER,"[…], time 7 day",12.2 g
same,LIVER,"[…], time 14 day",12.7 g
same,LIVER,"[…], time 28 day",14.6 g
same,ALP,"[…], time 7 day",1283 IU/L
same,ALT,"[…], time 7 day",35.4 IU/L
same,AST,"[…], time 7 day",64.4 IU/L
same,BUN,"[…], time 7 day",16.2 mg/dL
same,CRE,"[…], time 7 day",0.2 mg/dL
same,Ca,"[…], time 7 day",11 mg/dL
same,Cl,"[…], time 7 day",105.4 meq/L
same,DBIL,"[…], time 7 day",0.002 mg/dL
same,GLC,"[…], time 7 day",171.8 mg/dL
same,IP,"[…], time 7 day",7.3 mg/dL
same,K,"[…], time 7 day",4.2 meq/L
same,LDH,"[…], time 7 day",148.4 IU/L
same,Na,"[…], time 7 day",141.6 meq/L
same,PL,"[…], time 7 day",134.6 mg/dL
same,RALB,"[…], time 7 day",3 g/dL
same,TBIL,"[…], time 7 day",0.02 mg/dL
same,TC,"[…], time 7 day",70.4 mg/dL
same,TG,"[…], time 7 day",94.6 mg/dL
same,TP,"[…], time 7 day",5.6 g/dL
same,gamma-GTP,"[…], time 7 day",1.8 IU/L
same,ALP,"[…], time 14 day",1231.6 IU/L
same,ALT,"[…], time 14 day",35.2 IU/L
same,AST,"[…], time 14 day",66.4 IU/L
same,BUN,"[…], time 14 day",15.6 mg/dL
same,CRE,"[…], time 14 day",0.2 mg/dL
same,Ca,"[…], time 14 day",10.5 mg/dL
same,Cl,"[…], time 14 day",106 meq/L
same,DBIL,"[…], time 14 day",0 mg/dL
same,GLC,"[…], time 14 day",170.2 mg/dL
same,IP,"[…], time 14 day",6.7 mg/dL
same,K,"[…], time 14 day",4.2 meq/L
same,LDH,"[…], time 14 day",96.2 IU/L
same,Na,"[…], time 14 day",140.6 meq/L
same,PL,"[…], time 14 day",143 mg/dL
same,RALB,"[…], time 14 day",3 g/dL
same,TBIL,"[…], time 14 day",0.01 mg/dL
same,TC,"[…], time 14 day",73.6 mg/dL
same,TG,"[…], time 14 day",109.8 mg/dL
same,TP,"[…], time 14 day",5.6 g/dL
same,gamma-GTP,"[…], time 14 day",2.4 IU/L
same,ALP,"[…], time 28 day",1075.4 IU/L
same,ALT,"[…], time 28 day",31 IU/L
same,AST,"[…], time 28 day",62 IU/L
same,BUN,"[…], time 28 day",16.6 mg/dL
same,CRE,"[…], time 28 day",0.2 mg/dL
same,Ca,"[…], time 28 day",10.4 mg/dL
same,Cl,"[…], time 28 day",106.6 meq/L
same,DBIL,"[…], time 28 day",0.004 mg/dL
same,GLC,"[…], time 28 day",175.4 mg/dL
same,IP,"[…], time 28 day",5.9 mg/dL
same,K,"[…], time 28 day",4.2 meq/L
same,LDH,"[…], time 28 day",148 IU/L
same,Na,"[…], time 28 day",142.4 meq/L
same,PL,"[…], time 28 day",135.4 mg/dL
same,RALB,"[…], time 28 day",3.1 g/dL
same,TBIL,"[…], time 28 day",0.018 mg/dL
same,TC,"[…], time 28 day",67.6 mg/dL
same,TG,"[…], time 28 day",116.4 mg/dL
same,TP,"[…], time 28 day",5.9 g/dL
same,gamma-GTP,"[…], time 28 day",1.2 IU/L
